Reference: ChEMBL document CHEMBL1149638, “Synthesis of novel antitumoural analogues of dysidiolide from ent-halimic acid” (Bioorg Med Chem, 2007)

Experiments:
Format in all cases: functional, cell-based
HL-60 = test: Antiproliferative activity against human HL60 cells after 72 hrs by XTT assay; details: HL-60, 72 h
A549 = test: Antiproliferative activity against human A549 cells after 72 hrs by XTT assay; details: A549, 72 h
HeLa = test: Antiproliferative activity against human HeLa cells after 72 hrs by XTT assay
HT-29 = test: Antiproliferative activity against human HT29 cells after 72 hrs by XTT assay; details: HT-29, 72 h

Row | SMILES | IC50 (HL-60) [µM] | IC50 (A549) [µM] | IC50 (HeLa) [µM] | IC50 (HT-29) [µM]
1 | C=C(C)CCC[C@]1(C)C2=CCC[C@](C)(C[C@H](OC(C)=O)C3=CC(=O)OC3O)[C@H]2CC[C@H]1C (stereo not given in full) | 3 | 4.5 | 2.6 | 4.2
2 | COC/C=C(\C)CC[C@]1(C)C2=C(CC[C@H]1C)C1(C)CCC2[C@@](O)(C2=CC(=O)OC2O)C1 (stereo not given in full) | 18.7 | 28.2 | 26.5 | 18.7
3 | C=C(C)CC[C@]1(C)C2=CCC[C@](C)(C[C@@H](O)C3=CC(=O)OC3O)[C@H]2CC[C@H]1C (stereo not given in full) | 3.3 | 4.4 | 5.4 | 3.6
4 | C=C(C)CC[C@]1(C)C2=CCC[C@](C)(C[C@@H](O)c3ccoc3)[C@H]2CC[C@H]1C | 28.7 | 34 | 30.2 | 30
5 | C=C(C)CCC[C@]1(C)C2=CCC[C@](C)(C[C@H](O)c3ccoc3)[C@H]2CC[C@H]1C | 31.2 | 66 | 59.4 | 63.1
6 | CC(C)=CCC[C@]1(C)C2=CCC[C@](C)(CC(=O)c3ccoc3)[C@H]2CC[C@H]1C | 57.8 | 91 | 54.5 | 82.3
7 | C=C(C)CCC[C@]1(C)C2=CCC[C@](C)(C[C@H](O)C3=CC(=O)OC3O)[C@H]2CC[C@H]1C (stereo not given in full) | 3 | 3.2 | 3.8 | 3
8 | C=C(C)CCC[C@]1(C)C2=CCC[C@](C)(C[C@@H](O)C3=CC(=O)OC3O)[C@H]2CC[C@H]1C (stereo not given in full) | 3.2 | 3.8 | 2.6 | 2.3
9 | C=C(C)CC[C@]1(C)C2=CCC[C@](C)(C[C@H](O)C3=CC(=O)OC3O)[C@H]2CC[C@H]1C (stereo not given in full) | 3.2 | 4.5 | 4.8 | 3.2
10 | C=C(C)CCC[C@]1(C)C2=C(CC[C@H]1C)C1(C)CCC2[C@@](O)(C2=CC(=O)OC2O)C1 (stereo not given in full) | 0.3 | 3 | 3.1 | 2.9
11 | C=C(C)CC[C@]1(C)C2=CCC[C@](C)(C[C@H](O)c3ccoc3)[C@H]2CC[C@H]1C | 28.7 | 34 | 30.2 | 30
12 | C=C(C)CCC[C@]1(C)C2=CCC[C@](C)(C[C@@H](O)c3ccoc3)[C@H]2CC[C@H]1C | 31.2 | 66 | 59.4 | 63.1
13 | C=C(C)CCC[C@]1(C)C2=CCC[C@](C)(CC(=O)c3ccoc3)[C@H]2CC[C@H]1C | > 100 | > 100 | > 100 | > 100
14 | C=C(C)CC[C@]1(C)C2=CCC[C@](C)(C[C@@H](OC(C)=O)C3=CC(=O)OC3O)[C@H]2CC[C@H]1C (stereo not given in full) | 3.3 | 11.1 | 6.7 | 4.8
15 | C=C(C)CCC[C@]1(C)C2=CCC[C@](C)(C[C@@H](OC(C)=O)C3=CC(=O)OC3O)[C@H]2CC[C@H]1C (stereo not given in full) | 3.2 | 3.2 | 3.5 | 2.9
